{"source": "patent US4575498A", "about": "“Method for restoring depleted purine nucleotide pools” (priority 1983, dated 1986)", "key": {"myocardium": {"test_system": "myocardium", "assay": "Regional myocardial blood flow, coronary occlusion and reperfusion", "assay_type": "in vivo, dogs", "conditions": "any time point", "protocol": "Catheters were placed in the left atrium and aorta, and a snare positioned around the left anterior descending coronary artery in 15 open-chest dogs. Regional myocardial blood flow was measured and transmural tissue samples were obtained using known techniques. Blood flow measurements and tissue samples were obtained prior to and just before release of a 12-minute coronary occlusion. The chest was closed and the animals allowed to awaken. Twenty-four hours later, the animals were anesthetized, the chest opened, blood flow measured, and tissue samples obtained. No hemodynamic measurements were made on the animals.\nIn seven animals, 200 mM AICAriboside (Sigma Chemical Co.) was infused into the left atrial catether at either 14 μmol/min (n=2) or 37 μmol/min (n=5) beginning with coronary occlusion and continuing for 24 hours. Eight control animals were infused with an equal volume of saline over 24 hours.\nAll comparisons between AICAriboside and saline treated animals were done by unpaired analyses."}, "[1]": {"assay": "Serum urate concentrations", "assay_type": "in vivo, mongrel dogs", "conditions": "dog, in vivo; of 8 mmol infused, during 42 min; minimal estimate from serum urate increase and total body water; read-out: infused AICAriboside metabolized to purine nucleotides and subsequently catabolized", "protocol": "(§1) Animal Preparation--Seven adult mongrel dogs were anesthetized intramuscularly with 40 mg of morphine sulfate and intravenously with 80 mg/kg of chloralose, an endotraceal tube was inserted, and ventilation was maintained with an Emerson volume-cycled respirator and 100% oxygen. The heart was exposed through a left lateral thoracotomy, polyvinyl chloride catheters (3-mm outer diameter) were inserted into the left atrium and into the aorta through the right femoral artery, and a Statham TTQ electromagnetic flow meter probe was positioned around the ascending aorta. The aortic pressure catheter was connected to a Statham P23Db transducer (Statham Instruments, Inc., Oxnard, CA) with the zero reference at the midchest level. Aortic flow was measured with a Howell Instruments Series 1000 Flowmeter, and stroke volume and cardiac output were calculated from the aortic flow measurement. All hemodynamic data were monitored continuously throughout the course of the study. In 5 of the animals, the skin of the left dorsal hindlimb was opened and the gastrocnemius muscle was identified for subsequent tissue sampling.\n(§2) After hemodynamic parameters had stabilized, regional myocardial blood flow was measured by injecting radioactively labled microspheres. Tissue samples were obtained from the left ventricle and from the left gastrocnemius muscle. A venous blood sample was also obtained. AICAriboside (100 mM) was then infused into the left atrium at 1.9 ml/min. Repeat tissue samples were taken from the left ventricle at 15, 30 and 42 min. of infusion, and tissue samples were taken from the gastrocnemius muscle at 30 min. of infusion. Venous and arterial blood samples were also obtained at 42 min. of infusion, and regional myocardial blood flow was measured at 10 and 39 min. of AICAriboside infusion. AICAriboside infusion was terminated after 42 min., and tissue samples were taken from the left ventricle at 10, 20, 30 and 60 min. postinfusion and from the left gastrocnemius muscle at 2, 22 and 60 min. postinfusion. Venous blood samples were obtained at 10, 30 and 60 min. after AICAriboside infusion. In 4 of the 7 dogs, 400 mM formate was infused intravenously at the rate of 1.9 ml/min. for 42 min. prior to and during AICAriboside infusion. These same animals also received 6 mg of folinic acid as an intravenous bolus 30 min. prior to and 15 min. after initiating AICAriboside infusion.\n(§3) Other Methods--Serum urate was determined by the enzymatic spectrophotometric method as previously described in Liddle et al., J. Lab. Clin. Med., 54, 909-913 (1959)."}, "serum urate": {"test_system": "serum urate", "assay": "Serum urate concentrations", "assay_type": "in vivo, mongrel dogs", "conditions": "for Serum urate concentration: P < 0.05 vs control", "protocol": "as §1, §2, §3"}, "cardiac muscle": {"test_system": "cardiac muscle", "assay": "AICAriboside infusion in normal myocardium: nucleotide, nucleoside and base content of cardiac muscle biopsies", "conditions": "for TAN: total adenine nucleotide"}, "[2]": {"conditions": "cardiac muscle, 10 min postinfusion"}, "[3]": {"conditions": "cardiac muscle, 10 min postinfusion, P < 0.05 vs control"}, "[4]": {"conditions": "cardiac muscle, 15 min of AICAriboside infusion"}, "[5]": {"conditions": "cardiac muscle, 20 min postinfusion"}, "[6]": {"conditions": "cardiac muscle, 20 min postinfusion, P < 0.05 vs control"}, "[7]": {"conditions": "cardiac muscle, 30 min of AICAriboside infusion"}, "[8]": {"conditions": "cardiac muscle, 30 min of AICAriboside infusion, P < 0.05 vs control"}, "[9]": {"conditions": "cardiac muscle, 30 min postinfusion"}, "[10]": {"conditions": "cardiac muscle, 30 min postinfusion, P < 0.05 vs control"}, "[11]": {"conditions": "cardiac muscle, 42 min of AICAriboside infusion"}, "[12]": {"conditions": "cardiac muscle, 60 min postinfusion"}}}
{"molecule": "NC(=O)c1ncn([C@@H]2O[C@H](CO)[C@@H](O)[C@H]2O)c1N", "note": "[AICAriboside, 5-amino-4-imidazolecarboxamide riboside]", "values": [{"measurement": "regional flow vs saline group", "setting": "myocardium", "result": "no differences"}, {"measurement": "metabolised at 0.7 h", "setting": "[1]", "result": "≥ 25", "unit": "%"}, {"measurement": "Serum urate concentration", "setting": "serum urate; 10 min postinfusion", "result": "3.5 ± 0.5", "unit": "mg/dL"}, {"measurement": "Serum urate concentration", "setting": "serum urate; 30 min postinfusion", "result": "2.9 ± 0.2", "unit": "mg/dL"}, {"measurement": "Serum urate concentration", "setting": "serum urate; 42 min of AICAriboside infusion", "result": "3.5 ± 0.4", "unit": "mg/dL"}, {"measurement": "Serum urate concentration", "setting": "serum urate; 60 min postinfusion", "result": "2.40 ± 0.4", "unit": "mg/dL"}, {"measurement": "increase in mean serum urate concentration", "setting": "serum urate; following infusion of 8 mmol of AICAriboside", "result": 3.7, "unit": "fold"}, {"measurement": "myocardial content of CTP", "setting": "cardiac muscle; AICAriboside infusion", "result": "no detectable change"}, {"measurement": "mean content of AICAriboside in cardiac muscle greater than that of skeletal muscle", "setting": "cardiac muscle; after 30 min of infusion", "result": 66, "unit": "%"}, {"measurement": "adenylosuccinate in biopsies", "setting": "cardiac muscle; before, during or after infusion, lower limit of detection 3 nmol/g, wet weight", "result": "not detectable"}, {"measurement": "adenylate energy charge", "setting": "cardiac muscle; cardiac muscle, 0.929±0.003 before infusion, during course of experiment", "result": "did not vary"}, {"measurement": "ADP", "setting": "cardiac muscle; [2]", "result": "0.83 ± 0.05 μmol/g, wet weight"}, {"measurement": "AMP", "setting": "cardiac muscle; [2]", "result": "0.054 ± 0.007 μmol/g, wet weight"}, {"measurement": "Hyp (hypoxanthine)", "setting": "cardiac muscle; [2]", "result": "0.016 ± 0.008 μmol/g, wet weight"}, {"measurement": "Ino (inosine)", "setting": "cardiac muscle; [2]", "result": "0.009 ± 0.001 μmol/g, wet weight"}, {"measurement": "ATP", "setting": "cardiac muscle; [3]", "result": "6.07 ± 0.17 μmol/g, wet weight"}, {"measurement": "IMP", "setting": "cardiac muscle; [3]", "result": "0.018 ± 0.003 μmol/g, wet weight"}, {"measurement": "ADP", "setting": "cardiac muscle; [4]", "result": "0.77 ± 0.06 μmol/g, wet weight"}, {"measurement": "AMP", "setting": "cardiac muscle; [4]", "result": "0.056 ± 0.008 μmol/g, wet weight"}, {"measurement": "ATP", "setting": "cardiac muscle; [4]", "result": "5.77 ± 0.24 μmol/g, wet weight"}, {"measurement": "IMP", "setting": "cardiac muscle; [4]", "result": "0.020 ± 0.007 μmol/g, wet weight"}, {"measurement": "ADP", "setting": "cardiac muscle; [5]", "result": "0.81 ± 0.04 μmol/g, wet weight"}, {"measurement": "AMP", "setting": "cardiac muscle; [5]", "result": "0.054 ± 0.005 μmol/g, wet weight"}, {"measurement": "Hyp (hypoxanthine)", "setting": "cardiac muscle; [5]", "result": "0.007 ± 0.002 μmol/g, wet weight"}, {"measurement": "IMP", "setting": "cardiac muscle; [5]", "result": "0.017 ± 0.005 μmol/g, wet weight"}, {"measurement": "Ino (inosine)", "setting": "cardiac muscle; [5]", "result": "0.007 ± 0.001 μmol/g, wet weight"}, {"measurement": "ATP", "setting": "cardiac muscle; [6]", "result": "5.83 ± 0.14 μmol/g, wet weight"}, {"measurement": "ADP", "setting": "cardiac muscle; [7]", "result": "0.82 ± 0.03 μmol/g, wet weight"}, {"measurement": "AMP", "setting": "cardiac muscle; [7]", "result": "0.050 ± 0.005 μmol/g, wet weight"}, {"measurement": "Hyp (hypoxanthine)", "setting": "cardiac muscle; [7]", "result": "0.013 ± 0.006 μmol/g, wet weight"}, {"measurement": "IMP", "setting": "cardiac muscle; [7]", "result": "0.030 ± 0.021 μmol/g, wet weight"}, {"measurement": "Ino (inosine)", "setting": "cardiac muscle; [7]", "result": "0.012 ± 0.001 μmol/g, wet weight"}, {"measurement": "ATP", "setting": "cardiac muscle; [8]", "result": "5.89 ± 0.16 μmol/g, wet weight"}, {"measurement": "ADP", "setting": "cardiac muscle; [9]", "result": "0.84 ± 0.03 μmol/g, wet weight"}, {"measurement": "AMP", "setting": "cardiac muscle; [9]", "result": "0.055 ± 0.006 μmol/g, wet weight"}, {"measurement": "Hyp (hypoxanthine)", "setting": "cardiac muscle; [9]", "result": "0.003 ± 0.002 μmol/g, wet weight"}, {"measurement": "Ino (inosine)", "setting": "cardiac muscle; [9]", "result": "0.009 ± 0.002 μmol/g, wet weight"}, {"measurement": "ATP", "setting": "cardiac muscle; [10]", "result": "5.98 ± 0.07 μmol/g, wet weight"}, {"measurement": "IMP", "setting": "cardiac muscle; [10]", "result": "0.016 ± 0.003 μmol/g, wet weight"}, {"measurement": "ADP", "setting": "cardiac muscle; [11]", "result": "0.77 ± 0.03 μmol/g, wet weight"}, {"measurement": "AMP", "setting": "cardiac muscle; [11]", "result": "0.053 ± 0.007 μmol/g, wet weight"}, {"measurement": "ATP", "setting": "cardiac muscle; [11]", "result": "5.77 ± 0.28 μmol/g, wet weight"}, {"measurement": "IMP", "setting": "cardiac muscle; cardiac muscle, 42 min of AICAriboside infusion, P < 0.05 vs control", "result": "0.019 ± 0.006 μmol/g, wet weight"}, {"measurement": "ADP", "setting": "cardiac muscle; [12]", "result": "0.82 ± 0.04 μmol/g, wet weight"}, {"measurement": "AMP", "setting": "cardiac muscle; [12]", "result": "0.052 ± 0.006 μmol/g, wet weight"}, {"measurement": "ATP", "setting": "cardiac muscle; [12]", "result": "5.72 ± 0.27 μmol/g, wet weight"}, {"measurement": "Hyp (hypoxanthine)", "setting": "cardiac muscle; [12]", "result": "0.001 ± 0.001 μmol/g, wet weight"}, {"measurement": "Ino (inosine)", "setting": "cardiac muscle; [12]", "result": "0.006 ± 0.001 μmol/g, wet weight"}, {"measurement": "IMP", "setting": "cardiac muscle; cardiac muscle, 60 min postinfusion, P < 0.05 vs control", "result": "0.017 ± 0.003 μmol/g, wet weight"}, {"measurement": "increase in IMP content", "setting": "cardiac muscle; cardiac muscle, AICAriboside infusion", "result": "3-4 fold"}, {"measurement": "maximum UTP content", "setting": "cardiac muscle; cardiac muscle, from basal 0.126±0.009, p<0.005", "result": "0.157±0.006 μmol/g, wet weight"}, {"measurement": "guanine nucleotide content (GDP+GTP)", "setting": "cardiac muscle; cardiac muscle, significant at one time point only", "result": "tended to increase"}, {"measurement": "dogs with guanine nucleotide pool remaining elevated", "setting": "cardiac muscle; cardiac muscle, up to 60 min after infusion discontinued", "result": "6 of 7"}, {"measurement": "adenosine content", "setting": "cardiac muscle; cardiac or skeletal muscle, during infusion", "result": "did not increase"}, {"measurement": "AMP and ADP content change", "setting": "cardiac muscle; cardiac tissue, any time point", "result": "did not change significantly"}, {"measurement": "increased ATP content", "setting": "cardiac muscle; cardiac tissue, from 5.55±0.17, p<0.02", "result": "6.07±0.17 μmol/g, wet weight"}, {"measurement": "accumulation of AICAriboside-TP", "setting": "cardiac muscle; cardiac vs skeletal muscle, quantitated with extinction coefficient of AICAR", "result": "greater in cardiac muscle"}, {"measurement": "maximum TAN (total adenine nucleotide)", "setting": "cardiac muscle; heart muscle, from basal 6.40±0.20, p<0.005", "result": "6.96±0.20 μmol/g, wet weight"}, {"measurement": "content of NAD^+", "setting": "cardiac muscle; heart, throughout infusion, did not vary", "result": "0.64 ± 0.01", "unit": "µmol/g"}, {"measurement": "UTP pool increase", "setting": "cardiac muscle; myocardial cells, following AICAriboside infusion", "result": 25, "unit": "%"}, {"measurement": "content of inosine and hypoxanthine", "setting": "cardiac muscle; myocardial, throughout the study", "result": "only minimally increased"}, {"measurement": "TAN", "setting": "cardiac muscle; [3]", "result": "6.96 ± 0.20 μmol/g, wet weight"}, {"measurement": "TAN", "setting": "cardiac muscle; [4]", "result": "6.59 ± 0.29 μmol/g, wet weight"}, {"measurement": "TAN", "setting": "cardiac muscle; [6]", "result": "6.70 ± 0.10 μmol/g, wet weight"}, {"measurement": "TAN", "setting": "cardiac muscle; [8]", "result": "6.77 ± 0.16 μmol/g, wet weight"}, {"measurement": "TAN", "setting": "cardiac muscle; [10]", "result": "6.87 ± 0.10 μmol/g, wet weight"}, {"measurement": "TAN", "setting": "cardiac muscle; [11]", "result": "6.59 ± 0.27 μmol/g, wet weight"}, {"measurement": "TAN", "setting": "cardiac muscle; [12]", "result": "6.59 ± 0.24 μmol/g, wet weight"}]}
